From patent publication US6858638B2, “Substituted indazoles, compositions containing them, method of production and use” (Aventis Pharma S.A., priority 2002, dated 2005) come the findings set out here.

Assay type in all cases: biochemical
Test [1] addresses T1, human KDR enzyme (Homo sapiens, UniProt P35968).
T1 construct: The cytoplasmic domain of the human KDR enzyme; GST; made in house; host or cells: SF21 insect cells (baculovirus)
Kind of test: KDR substrate (PLCγ) phosphorylation, scintillation assay. To be noted: 10 μM; read-out: KDR % inhib at 10 μM. In short, it runs like this: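 Values are percent inhibition relative to the compound-free control, read by scintillation counting of 33P incorporation after EDTA stop. Baculovirus/SF21-expressed GST-KDR cytoplasmic domain (100 ng) acted for 1 h at 37 °C in pH 7.2 MOPS kinase buffer. The substrate was GST-PLCγ SH2-SH3 (2 μg), added with γ33P-ATP and 2 μM unlabeled ATP.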

Test [2] has as its target T2, human FAK (Homo sapiens, UniProt Q05397).
T2 construct: The complete cDNA of human FAK; made in house; host or cells: baculovirus expression system (vector pFastBac HTc)
Kind of test: FAK autophosphorylation inhibition, time resolved fluorescence (HTRF) assay. The note with it: for inhibition at 10 µM: 10 μM (values without asterisk), read-out: FAK % inhib at 10 μM; for inhibition at 30 µM: 30 μM (values marked *), read-out: FAK % inhib at 30* μM. Summed up: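 Autophosphorylation was detected by europium-cryptate anti-pTyr and XL665 anti-His energy transfer, percent inhibition from the 665/620 ratio relative to no-compound wells. Enzyme: His-FAK full length, 6.6 µg/ml, incubated 1 h at 37 °C, pH 7.2, 15 µM ATP.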
A general note: In TR-FRET formats the signal depends on donor and acceptor labels being close together.

Test [3] deals with T3, human IGF1R cytoplasmic domain (Homo sapiens, UniProt P08069).
T3 construct: The human IGF1R cytoplasmic domain was cloned; made in house; host or cells: SF21 insect cells (baculovirus)
Kind of test: IGF1R autophosphorylation inhibition, time resolved fluorescence (HTRF) assay. The note with it: 10 μM; read-out: IGF1R % inhib at 10 μM. Summed up: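 GST-tagged human IGF1R cytoplasmic domain from SF21 cells incubated with compound in 50 mM Hepes pH 7.5, 5 mM MnCl2, 50 mM NaCl, […] ATP. Autophosphorylation detected by HTRF (Eu-K anti-phosphotyrosine, XL665 anti-GST) after EDTA/KF stop; percentage inhibition versus no-compound control.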

T3 sequence (P08069 960-1367 limits assumed): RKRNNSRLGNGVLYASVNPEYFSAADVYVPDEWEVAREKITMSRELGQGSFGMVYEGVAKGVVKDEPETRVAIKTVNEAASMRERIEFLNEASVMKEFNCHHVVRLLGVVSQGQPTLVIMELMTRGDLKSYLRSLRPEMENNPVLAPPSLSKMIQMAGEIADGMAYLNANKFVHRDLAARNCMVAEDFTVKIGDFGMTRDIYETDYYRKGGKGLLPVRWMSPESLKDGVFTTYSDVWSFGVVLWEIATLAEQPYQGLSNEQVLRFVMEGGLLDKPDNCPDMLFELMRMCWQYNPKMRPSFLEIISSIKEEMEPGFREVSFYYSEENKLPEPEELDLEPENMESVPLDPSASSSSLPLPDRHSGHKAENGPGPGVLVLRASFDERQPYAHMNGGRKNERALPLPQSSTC
T1 sequence (P35968 786-1356 limits assumed): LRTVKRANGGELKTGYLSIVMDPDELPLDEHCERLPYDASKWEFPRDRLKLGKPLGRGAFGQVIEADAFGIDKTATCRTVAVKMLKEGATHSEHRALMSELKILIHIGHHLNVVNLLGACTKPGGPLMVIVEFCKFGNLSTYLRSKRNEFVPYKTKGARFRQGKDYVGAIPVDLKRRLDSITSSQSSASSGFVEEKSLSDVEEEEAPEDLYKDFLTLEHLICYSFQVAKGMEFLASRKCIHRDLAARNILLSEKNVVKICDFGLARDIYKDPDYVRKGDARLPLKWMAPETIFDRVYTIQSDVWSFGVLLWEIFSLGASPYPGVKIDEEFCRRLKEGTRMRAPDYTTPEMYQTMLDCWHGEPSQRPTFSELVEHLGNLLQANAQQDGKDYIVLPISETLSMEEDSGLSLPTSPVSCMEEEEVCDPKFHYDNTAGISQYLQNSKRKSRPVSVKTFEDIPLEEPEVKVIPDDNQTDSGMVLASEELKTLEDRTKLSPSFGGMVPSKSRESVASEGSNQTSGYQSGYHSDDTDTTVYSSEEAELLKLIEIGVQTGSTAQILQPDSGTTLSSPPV
T2 sequence (Q05397 whole entry): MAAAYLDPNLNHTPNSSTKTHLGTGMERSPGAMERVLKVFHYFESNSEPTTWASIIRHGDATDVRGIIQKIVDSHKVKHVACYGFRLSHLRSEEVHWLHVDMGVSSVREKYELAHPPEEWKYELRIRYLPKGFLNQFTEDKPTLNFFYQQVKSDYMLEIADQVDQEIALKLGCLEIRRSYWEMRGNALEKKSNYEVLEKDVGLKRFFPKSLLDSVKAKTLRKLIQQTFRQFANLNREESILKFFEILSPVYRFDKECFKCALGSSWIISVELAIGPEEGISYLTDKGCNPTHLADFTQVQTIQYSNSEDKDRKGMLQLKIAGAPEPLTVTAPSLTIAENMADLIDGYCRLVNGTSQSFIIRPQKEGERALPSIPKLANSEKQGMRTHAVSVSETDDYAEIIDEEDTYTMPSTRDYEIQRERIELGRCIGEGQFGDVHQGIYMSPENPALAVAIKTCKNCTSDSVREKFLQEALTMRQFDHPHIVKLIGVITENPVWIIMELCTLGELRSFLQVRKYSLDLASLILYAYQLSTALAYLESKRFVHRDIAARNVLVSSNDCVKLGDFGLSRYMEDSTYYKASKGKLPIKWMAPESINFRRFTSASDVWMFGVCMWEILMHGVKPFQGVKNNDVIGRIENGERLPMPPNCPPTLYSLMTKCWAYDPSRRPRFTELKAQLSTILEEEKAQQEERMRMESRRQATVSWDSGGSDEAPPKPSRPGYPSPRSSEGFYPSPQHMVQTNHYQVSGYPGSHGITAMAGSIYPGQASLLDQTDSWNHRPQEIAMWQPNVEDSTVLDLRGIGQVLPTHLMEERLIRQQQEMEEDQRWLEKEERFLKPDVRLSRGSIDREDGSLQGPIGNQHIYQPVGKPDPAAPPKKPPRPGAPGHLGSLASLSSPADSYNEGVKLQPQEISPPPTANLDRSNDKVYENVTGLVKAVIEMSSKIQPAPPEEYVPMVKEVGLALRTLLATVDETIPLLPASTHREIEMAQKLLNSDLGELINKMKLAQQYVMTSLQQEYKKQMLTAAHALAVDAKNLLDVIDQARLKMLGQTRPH

For `O=S(=O)(Nc1ccc2[nH]nc(-c3ccccc3)c2c1)c1cccs1` [Example 110, N-(3-Phenyl-1H-indazol-5-yl)-thiophene-2-sulfonamide], the values for the inhibition at 10 µM in test [1], in test [2] and in test [3] were 91%, 66% and 80%, respectively.

On to `O=S(=O)(Nc1ccc2[nH]nc(-c3cc4ccccc4[nH]3)c2c1)c1ccccc1OC(F)(F)F` [Example 84, N-[3-(1H-Indol-2-yl)-1H-indazol-5-yl]-2-trifluoromethoxybenzenesulfonamide], for which the results for the inhibition at 10 µM in test [1], in test [2] and in test [3] were 98%, 90% and 94%, respectively.

For the compound `Nc1n[nH]c2ccc(NS(=O)(=O)c3c(Cl)cccc3Cl)cc12` [Example 41, N-(3-Amino-1H-indazol-5-yl)-2,6-dichlorobenzenesulfonamide], the figures for the inhibition at 10 µM in test [1], in test [2] and in test [3] were 36%, 71% and 18%, respectively.

In the case of `CS(=O)(=O)c1ccccc1S(=O)(=O)Nc1ccc2[nH]nc(-c3ccccc3)c2c1` [Example 7, 2-Methylsulfonyl-N-(3-phenyl-1H-indazol-5-yl)benzenesulfonamide], the values for the inhibition at 10 µM in test [1] and in test [2] were 70% and 89%, respectively.

`CS(=O)(=O)c1ccccc1S(=O)(=O)Nc1ccc2[nH]nc(-c3ccc(F)cc3)c2c1` [Example 33, N-[3-(4-Fluorophenyl)-1H-indazol-5-yl]-2-methylsulfonylbenzenesulfonamide]: the results for the inhibition at 10 µM in test [1], in test [2] and in test [3] were 68%, 94% and 94%, respectively.

Consider `CS(=O)(=O)c1ccccc1S(=O)(=O)Nc1ccc2[nH]nc(-c3ccc(N)cc3)c2c1` [Example 70, N-[3-(4-Aminophenyl)-1H-indazol-5-yl]-2-methylsulfonylbenzenesulfonamide], for which the values for the inhibition at 10 µM in test [1], in test [2] and in test [3] were 71%, 99% and 85%, respectively.

For the compound `CS(=O)(=O)c1ccccc1S(=O)(=O)Nc1ccc2[nH]nc(-c3nc4ccccc4[nH]3)c2c1` [Example 81, N-[3-(1H-Benzimidazol-2-yl)-1H-indazol-5-yl]-2-methylsulfonylbenzenesulfonamide], the inhibition at 10 µM in test [1] stood at 93%; in test [2], 98%; in test [3], 99%.

With `CS(=O)(=O)c1ccccc1S(=O)(=O)Nc1ccc2[nH]nc(-c3ccoc3)c2c1` [Example 52, N-(3-Furan-3-yl-1H-indazol-5-yl)-2-methylsulfonylbenzenesulfonamide], the inhibition at 10 µM in test [1] was found to be 49%; in test [2], 93%; in test [3] it was 80%.

`O=S(=O)(Nc1ccc2[nH]nc(-c3ccccc3)c2c1)c1ccc(F)c(F)c1` [Example 152, 3,4-Difluoro-N-(3-phenyl-1H-indazol-5-yl)-benzenesulfonamide]: the inhibition at 10 µM in test [1] stood at 93%; in test [2], 71%; in test [3], 67%.

Consider `CS(=O)(=O)c1ccccc1S(=O)(=O)Nc1ccc2[nH]nc(C#Cc3ccccc3)c2c1` [Example 89, 2-Methylsulfonyl-N-(3-phenylethynyl-1H-indazol-5-yl)-benzenesulfonamide], for which the inhibition at 10 µM in test [1] is 85%; in test [2], 92%; in test [3] it was 90%.

On to `CS(=O)(=O)c1ccccc1S(=O)(=O)Nc1ccc2[nH]nc(-c3cccc(C#N)c3)c2c1` [Example 71, N-[3-(3-Cyanophenyl)-1H-indazol-5-yl]-2-methylsulfonylbenzenesulfonamide], for which the inhibition at 10 µM was 83% in test [1], 97% in test [2] and 90% in test [3].

Turning to `O=S(=O)(Nc1ccc2[nH]nc(-c3ccccc3)c2c1)C1CCNCC1` [Example 100, N-(3-Phenyl-1H-indazol-5-yl)-piperidine-4-sulfonamide], the inhibition at 10 µM in test [1] amounted to 74%; in test [2], 94%; in test [3], 13%.

In the case of `Nc1n[nH]c2ccc(NS(=O)(=O)c3cccc(F)c3)cc12` [Example 26, N-(3-Amino-1H-indazol-5-yl)-3-fluorobenzenesulfonamide], the inhibition at 10 µM in test [1] worked out at 24%; in test [2], 96%; in test [3], 34%.

Turning to `CS(=O)(=O)c1ccccc1S(=O)(=O)Nc1ccc2[nH]nc(/C=C/c3ccc(Cl)cc3)c2c1` [Example 76, N-{3-[(E)-2-(4-Chlorophenyl)vinyl]-1H-indazol-5-yl}-2-methylsulfonylbenzenesulfonamide], the inhibition at 10 µM in test [1] worked out at 92%; in test [2] it was 96%; in test [3], 96%.

Consider `COc1ccc(-c2n[nH]c3ccc(NS(=O)(=O)c4ccccc4S(C)(=O)=O)cc23)cc1` [Example 32, N-[3-(4-Methoxyphenyl)-1H-indazol-5-yl]-2-methylsulfonylbenzenesulfonamide], for which the values for the inhibition at 10 µM in test [1], in test [2] and in test [3] were 87%, 97% and 93%, respectively.

With `Nc1n[nH]c2ccc(NS(=O)(=O)c3c(F)cccc3F)cc12` [Example 40, N-(3-Amino-1H-indazol-5-yl)-2,6-difluorobenzenesulfonamide], the inhibition at 10 µM in test [1] was 22%; in test [2], 55%; in test [3] it was 12%.

As for `O=S(=O)(Nc1ccc2[nH]nc(Cl)c2c1)c1cccc(F)c1` [Example 3, N-(3-Chloro-1H-indazol-5-yl)-3-fluorobenzenesulfonamide], in test [1], the inhibition at 10 µM worked out at 22%. In addition, in test [2], the inhibition at 30 µM came out at 71%.

As for `Cc1cc2[nH]nc(-c3ccccc3)c2cc1NS(=O)(=O)c1ccccc1S(C)(=O)=O` [Example 92, 2-Methylsulfonyl-N-(6-methyl-3-phenyl-1H-indazol-5-yl)-benzenesulfonamide], the inhibition at 10 µM came to 66% in test [1], 27% in test [2] and 62% in test [3].

Take `CS(=O)(=O)c1ccc(F)cc1S(=O)(=O)Nc1ccc2[nH]nc(-c3ccccc3)c2c1` [Example 93, 5-Fluoro-2-methylsulfonyl-N-(3-phenyl-1H-indazol-5-yl)-benzenesulfonamide]: the inhibition at 10 µM in test [1] was 83%; in test [2] it was 94%; in test [3], 87%.

With `CS(=O)(=O)c1ccccc1S(=O)(=O)Nc1ccc2[nH]nc(-c3ccncc3)c2c1` [Example 54, 2-Methylsulfonyl-N-(3-pyridin-4-yl-1H-indazol-5-yl)benzenesulfonamide], the inhibition at 10 µM was determined as 76% in test [1], 96% in test [2] and 87% in test [3].

For the compound `CS(=O)(=O)c1ccccc1S(=O)(=O)Nc1ccc2[nH]nc(-c3ccc(Cl)cc3)c2c1` [Example 30, N-[3-(4-Chlorophenyl)-1H-indazol-5-yl]-2-methylsulfonylbenzenesulfonamide], the figures for the inhibition at 10 µM in test [1], in test [2] and in test [3] were 85%, 88% and 96%, respectively.

Take `CS(=O)(=O)c1ccccc1S(=O)(=O)Nc1ccc2[nH]nc(N)c2c1` [Example 39, N-(3-Amino-1H-indazol-5-yl)-2-methylsulfonylbenzenesulfonamide]: the inhibition at 10 µM in test [1] was 20%; in test [2], 96%; in test [3], 72%.

In the case of `Cc1n[nH]c2ccc(NS(=O)(=O)c3cccc(F)c3)cc12` [Example 9, 3-Fluoro-N-(3-methyl-1H-indazol-5-yl)benzenesulfonamide], the inhibition at 10 µM in test [1] was determined as 18%. Further, in test [2], the inhibition at 30 µM came out at 68%.

On to `Cc1n[nH]c2ccc(NS(=O)(=O)c3ccccc3S(C)(=O)=O)cc12` [Example 10, 2-Methylsulfonyl-N-(3-methyl-1H-indazol-5-yl)benzenesulfonamide], for which the inhibition at 10 µM in test [1] is 20%. Besides, in test [2], the inhibition at 30 µM was found to be 66%.

`CS(=O)(=O)c1ccccc1S(=O)(=O)Nc1ccc2[nH]ncc2c1` [Example 13, 2-Methylsulfonyl-N-(1H-indazol-5-yl)benzenesulfonamide]: the inhibition at 10 µM in test [1] was 0%. Moreover, the inhibition at 30 µM in test [2] was 83%.

With `O=S(=O)(Nc1ccc2[nH]nc(-c3ccccc3)c2c1)c1cccc(F)c1` [Example 6, 3-Fluoro-N-(3-phenyl-1H-indazol-5-yl)benzenesulfonamide], the inhibition at 10 µM in test [1] turned out to be 85%; in test [2], 82%.

Consider `CS(=O)(=O)c1ccccc1S(=O)(=O)Nc1ccc2[nH]nc(Cl)c2c1` [Example 1, N-(3-Chloro-1H-indazol-5-yl)-2-methylsulfonylbenzenesulfonamide], for which the inhibition at 10 µM in test [1] was 7%. Moreover, the inhibition at 30 µM in test [2] is 70%.

Regarding `O=S(=O)(Nc1ccc2[nH]nc(-c3ccccc3)c2c1)c1ccc(Cl)c(Cl)c1` [Example 8, 3,4-Dichloro-N-(3-phenyl-1H-indazol-5-yl)benzenesulfonamide], the inhibition at 10 µM in test [1] worked out at 81%. Also, the inhibition at 30 µM in test [2] was 76%.
